Data as given in patent USRE47193E1, “Selectively substituted quinoline compounds” (EISAI R&D MANAGEMENT CO., LTD., priority 2013, dated 2019).

Molecular target: T1, mouse TLR7 (Mus musculus, UniProt P58681)
T1 sequence (P58681 27-1050): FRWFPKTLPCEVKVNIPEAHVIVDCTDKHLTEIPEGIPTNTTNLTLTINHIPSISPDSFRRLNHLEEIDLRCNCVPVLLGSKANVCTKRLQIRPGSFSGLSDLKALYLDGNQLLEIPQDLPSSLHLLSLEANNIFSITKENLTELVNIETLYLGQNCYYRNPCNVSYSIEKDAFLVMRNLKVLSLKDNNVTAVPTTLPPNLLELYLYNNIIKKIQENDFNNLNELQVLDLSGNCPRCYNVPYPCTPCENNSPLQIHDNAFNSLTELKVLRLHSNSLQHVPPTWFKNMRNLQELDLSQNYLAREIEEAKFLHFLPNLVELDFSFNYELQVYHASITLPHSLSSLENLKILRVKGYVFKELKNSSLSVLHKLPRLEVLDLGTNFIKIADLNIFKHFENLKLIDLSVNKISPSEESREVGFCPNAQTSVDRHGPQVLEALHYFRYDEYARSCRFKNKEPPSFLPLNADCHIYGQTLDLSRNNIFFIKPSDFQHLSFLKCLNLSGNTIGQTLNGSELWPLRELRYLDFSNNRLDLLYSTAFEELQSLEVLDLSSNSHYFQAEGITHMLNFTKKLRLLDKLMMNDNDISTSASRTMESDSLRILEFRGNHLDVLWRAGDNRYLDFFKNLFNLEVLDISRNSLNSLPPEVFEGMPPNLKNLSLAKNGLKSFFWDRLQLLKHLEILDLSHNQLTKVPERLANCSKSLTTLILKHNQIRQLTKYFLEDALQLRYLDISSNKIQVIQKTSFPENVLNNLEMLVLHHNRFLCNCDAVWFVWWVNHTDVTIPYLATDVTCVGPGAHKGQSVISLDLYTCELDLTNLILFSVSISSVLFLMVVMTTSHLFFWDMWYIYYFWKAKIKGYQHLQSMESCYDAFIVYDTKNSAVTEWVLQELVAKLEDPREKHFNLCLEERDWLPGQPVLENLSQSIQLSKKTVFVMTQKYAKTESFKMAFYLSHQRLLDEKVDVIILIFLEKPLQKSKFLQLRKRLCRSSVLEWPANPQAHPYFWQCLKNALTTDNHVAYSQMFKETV
Assay: Short-term in vivo (STIV) assay: oral dosing, R848 s.c., plasma IL-6
Set-up: female BALB/c mice (Jackson Labs, Bar Harbor, Me.) were dosed by oral gavage; tissue Jackson Labs; host or cells: living female BALB/c mice; plasma IL-6 after s.c. R848
Conditions: for short-term in vivo suppression of the TLR7 pathway (plasma IL-6): 33, 100 or 300 mg/kg oral, 6, 13 or 24 hours, FIG. 1
Procedure, shortened: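 Female BALB/c mice (6–8 weeks) dosed orally with compound in 0.5% aqueous methyl-cellulose at 33, 100 or 300 mg/kg; at various times afterwards given 15 ug R848 s.c. to stimulate TLR7. Plasma IL-6 measured by ELISA to gauge potency and duration of action.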

Row | SMILES | % Suppression vs. Vehicle (6 h, 33 mg/kg) [%] | % Suppression vs. Vehicle (6 h, 100 mg/kg) [%] | % Suppression vs. Vehicle (6 h, 300 mg/kg) [%] | % Suppression vs. Vehicle (19 h, 33 mg/kg) [%] | % Suppression vs. Vehicle (19 h, 100 mg/kg) [%] | % Suppression vs. Vehicle (19 h, 300 mg/kg) [%] | % Suppression vs. Vehicle (3 h, 33 mg/kg) [%] | % Suppression vs. Vehicle (3 h, 100 mg/kg) [%] | also measured
1 | C[C@@H]1CN(C[C@H]2CN(c3ccc(C#N)c4ncccc34)C[C@@H](C)O2)CCN1 [ER-887269] | 95 | 100 | 98 | 9 | 58 | 95 | – | – | –
2 | C[C@@H]1CN(c2ccc(C#N)c3ncccc23)C[C@H](C(=O)NC2CCN(C)CC2)O1 [ER-899464, (2R,6R)-4-(8-cyanoquinolin-5-yl)-6-methyl-N-(1-methylpiperidin-4-yl)morpholine-2-carboxamide] | – | 99 | – | – | – | – | – | – | short-term in vivo suppression of the TLR7 pathway (plasma IL-6): suppression of the TLR7 pathway; % Suppression vs. Vehicle (13 h, 100 mg/kg): 96%
3 | CC[C@H]1CN(C[C@H]2CN(c3ccc(C#N)c4ncccc34)C[C@@H](C)O2)CCN1 [ER-890963] | 98 | 99 | 100 | 45 | – | – | 90 | – | % Suppression vs. Vehicle (13 h, 33 mg/kg): 31%; % Suppression vs. Vehicle (13 h, 100 mg/kg): 80%; % Suppression vs. Vehicle (13 h, 300 mg/kg): 100%; % Suppression vs. Vehicle (24 h, 100 mg/kg): 50%; % Suppression vs. Vehicle (24 h, 300 mg/kg): 100%
4 | C[C@@H]1CN(c2ccc(C#N)c3ncccc23)C[C@H](C(=O)N[C@H]2CNC[C@H]2F)O1.Cl [ER-899742, (2R,6R)-4-(8-cyanoquinolin-5-yl)-N-[(3S,4R)-4-fluoropyrrolidin-3-yl]-6-methylmorpholine-2-carboxamide hydrochloride] | – | 100 | – | – | – | – | – | – | short-term in vivo suppression of the TLR7 pathway (plasma IL-6): suppression of the TLR7 pathway; % Suppression vs. Vehicle (13 h, 100 mg/kg): 61%; duration of full suppression of the R848/TLR7/IL-6 pathway in vivo (single oral dose 300 mg/kg): at least 24 hours
5 | C[C@@H]1CN(c2ccc(C#N)c3ncccc23)C[C@H](CN2CCN(C)CC2)O1 [ER-887723] | 100 | 100 | 100 | 77 | 97 | 100 | – | – | –
6 | CC1CN(c2ccc(C#N)c3ncccc23)CC(CN2CCC(NC(=O)C(C)C)CC2)O1 (stereo not shown) [ER-889745] | 94 | 84 | – | 0 | 52 | – | – | 93 | % Suppression vs. Vehicle (13 h, 33 mg/kg): 0%; % Suppression vs. Vehicle (13 h, 100 mg/kg): 99%; % Suppression vs. Vehicle (13 h, 300 mg/kg): 95%; % Suppression vs. Vehicle (24 h, 33 mg/kg): 0%; % Suppression vs. Vehicle (24 h, 100 mg/kg): 64%; % Suppression vs. Vehicle (24 h, 300 mg/kg): 100%
7 | CC(=O)NC1CCN(CC2CN(c3ccc(C#N)c4ncccc34)CC(C)O2)CC1 (stereo not shown) [ER-888288] | 78 | 99 | 97 | 50 | 53 | – | 100 | 98 | % Suppression vs. Vehicle (24 h, 33 mg/kg): 14%; % Suppression vs. Vehicle (24 h, 100 mg/kg): 0%; % Suppression vs. Vehicle (24 h, 300 mg/kg): 55%
8 | CCCN1CCN(C[C@H]2CN(c3ccc(C#N)c4ncccc34)C[C@@H](C)O2)CC1 [ER-887724] | 99 | 99 | 99 | 83 | 91 | 99 | 99 | 99 | % Suppression vs. Vehicle (3 h, 300 mg/kg): 99%
9 | C[C@@H]1CN(c2ccc(C#N)c3ncccc23)C[C@H](CNC2CCCC2)O1 [ER-887145] | 91 | 99 | – | 0 | 96 | – | 97 | 99 | % Suppression vs. Vehicle (3 h after oral dose, 11 mg/kg): 67%; % Suppression vs. Vehicle (6 h, 11 mg/kg): 32%; % Suppression vs. Vehicle (19 h, 11 mg/kg): 0%
10 | C[C@@H]1CN(c2ccc(C#N)c3ncccc23)C[C@H](CN2CCC(O)CC2)O1 [ER-886953] | 99 | 99 | 99 | 23 | 45 | 99 | 99 | 99 | % Suppression vs. Vehicle (3 h, 300 mg/kg): 99%
11 | CC1CN(c2ccc(C#N)c3ncccc23)CC(CN2CCC(N(C)C)CC2)O1 (stereo not shown) [ER-887725] | 99 | 99 | 99 | 90 | 91 | 99 | 99 | 99 | % Suppression vs. Vehicle (3 h, 300 mg/kg): 99%
12 | C[C@@H]1CN(c2ccc(C#N)c3ncccc23)C[C@H](CN2CCC(N3CCCCC3)CC2)O1 [ER-887927, 5-((2S,6R)-2-([1,4′-bipiperidin]-1′-ylmethyl)-6-methylmorpholino)quinoline-8-carbonitrile] | 100 | 100 | 100 | 98 | 100 | 100 | – | – | % Suppression vs. Vehicle (19 h, 1.22 mg/kg): 56%; % Suppression vs. Vehicle (19 h, 3.67 mg/kg): 70%; % Suppression vs. Vehicle (19 h, 11 mg/kg): 94%
13 | CC1CN(c2ccc(C#N)c3ncccc23)CC(CN2CCCC2CO)O1 (stereo not shown) [ER-886814] | 57 | 100 | 100 | 14 | 19 | 100 | 93 | 100 | % Suppression vs. Vehicle (3 h, 300 mg/kg): 100%
14 | C[C@@H]1CN(c2ccc(C#N)c3ncccc23)C[C@H](CN2CC[C@H](O)C2)O1 [ER-886820] | 68 | 96 | 100 | 43 | 35 | 39 | 93 | 100 | % Suppression vs. Vehicle (3 h, 300 mg/kg): 100%
15 | C[C@@H]1CN(c2ccc(C#N)c3ncccc23)C[C@H](C)O1 [ER-878952] | – | – | – | – | – | – | – | – | % Suppression vs. Vehicle (12 h, 200 mg/kg): 93%; % Suppression vs. Vehicle (12 h, 600 mg/kg): 95%; % Suppression vs. Vehicle (18 h, 200 mg/kg): 90%; % Suppression vs. Vehicle (18 h, 600 mg/kg): 96%
16 | C[C@@H]1CN(c2ccc(C#N)c3ncccc23)C[C@H](CO)O1 [ER-885493, 5-((2R,6R)-2-(hydroxymethyl)-6-methylmorpholino)quinoline-8-carbonitrile] | – | – | – | – | – | – | – | – | % Suppression vs. Vehicle (3 h, 22 mg/kg): 39%; % Suppression vs. Vehicle (3 h, 67 mg/kg): 86%; % Suppression vs. Vehicle (3 h, 200 mg/kg): 88%; % Suppression vs. Vehicle (5 h, 22 mg/kg): 26%; % Suppression vs. Vehicle (5 h, 67 mg/kg): 99%; % Suppression vs. Vehicle (5 h, 200 mg/kg): 94%; % Suppression vs. Vehicle (12 h, 400 mg/kg): 76%; % Suppression vs. Vehicle (18 h, 22 mg/kg): 0%; % Suppression vs. Vehicle (18 h, 67 mg/kg): 5%; % Suppression vs. Vehicle (18 h, 200 mg/kg): 29%
17 | CC1CN(c2ccc(C#N)c3ncccc23)CC(CN2CCN(C)CC2C)O1 (stereo not shown) [ER-889556] | 100 | 100 | – | 47 | 98 | – | 100 | 100 | % Suppression vs. Vehicle (19 h, 1.22 mg/kg): 44%; % Suppression vs. Vehicle (19 h, 3.67 mg/kg): 89%; % Suppression vs. Vehicle (19 h, 11 mg/kg): 29%
